The numbers were not newly measured in patent EP1379546B1, “PEPTIDE FOR THE DIAGNOSIS AND THERAPY OF ALZHEIMER'S DISEASE” (Leibniz-Institut für Altersforschung - …, priority 2001, dated 2002), which cites them from elsewhere.

This series addresses Aβ (Homo sapiens, UniProt P05067). The following applies: inhibition of Aβ fibril formation and anticytotoxic effect, reported in Tomiyama et al., J. Biol. Chem. 1996.

Chain of Aβ (P05067 672-711 limits assumed): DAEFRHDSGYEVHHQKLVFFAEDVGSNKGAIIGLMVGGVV

Consider `CCCCCCCCCCCCCCCC[N+]1(C)CCCCC1.[Br-]` [Hexadecyl-N-methylpiperidiniumbromid], for which the Dissoziationskonstante entry is recorded as “µM- bis mM-Bereich”. Regarding `CO[C@H]1/C=C/O[C@@]2(C)Oc3c(C)c(O)c4c(O)c(c(/C=N/N5CCN(C)CC5)c(O)c4c3C2=O)NC(=O)/C(C)=C\C=C\[C@H](C)[C@H](O)[C@@H](C)[C@@H](O)[C@@H](C)[C@H](OC(C)=O)[C@@H]1C` [Rifampicin], the Dissoziationskonstante entry is “µM- bis mM-Bereich”.
